Test results as given in patent US8809361B2, “2,3-dihydrofuro[2,3-c]pyridines, their use as modulators of the G-protein-coupled receptor GPR119 and pharmaceutical compositions thereof” (Boehringer Ingelheim International GmbH, priority 2012, dated 2014).
pEC50: −log10 of the molar value.

Molecular target: T1, human GPR119 (Homo sapiens, UniProt Q8TDV5)
T1 construct: expression vector for human GPR119 cDNA (Acc. No. NP_848566); expressed in transfected cells
T1 sequence (Q8TDV5 1-335): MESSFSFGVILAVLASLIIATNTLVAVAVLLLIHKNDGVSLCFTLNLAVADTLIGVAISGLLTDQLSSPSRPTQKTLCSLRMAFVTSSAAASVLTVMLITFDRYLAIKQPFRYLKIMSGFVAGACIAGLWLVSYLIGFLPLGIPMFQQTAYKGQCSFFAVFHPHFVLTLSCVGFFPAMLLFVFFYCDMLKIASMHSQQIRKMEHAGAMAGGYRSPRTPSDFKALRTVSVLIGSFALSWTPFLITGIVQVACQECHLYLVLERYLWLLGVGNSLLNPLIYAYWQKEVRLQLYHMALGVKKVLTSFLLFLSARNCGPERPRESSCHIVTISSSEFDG
Assay: GPR119 activation / intracellular cAMP stimulation, AlphaScreen cAMP Assay in Min-6/hGPR119 cells
Assay type: cell-based
Conditions: MIN6 cells stably transfected with human GPR119, 45 minutes incubation at room temperature
Method: The compounds of formula I according to the invention modulate the activity of the G-protein-coupled receptor GPR119. The effect of the compounds on the activation of GPR119 and on the stimulation of intracellular cAMP concentration is determined using the AlphaScreen cAMP Assay Kit (Cat. No. #6760625R) made by PerkinElmer.
MIN6 cells [Miyazaki J et al., Endocrinology. 1990 July; 127(1):126-32] are stably transfected with an expression vector for human GPR119 cDNA (Acc. No. NP_848566). Min-6/hGPR119 cells are cultured in DMEM, 10% FBS, 50 μM β-mercaptoethanol, 0.3 mg/mL Geniticin, 2 mM GlutaMAX at 37° C., 5% CO2. For the assay, the cells are seeded in Optiplates (white, 384-well, 160W-barcoded, TC, sterile with lid, Cat. No. #6007688 (Perkin Elmer); 10000 cells/well; 50 μL). The plates covered with lids are then incubated for 24 hours at 37° C., 5% CO2. After the medium is aspirated from the wells completely, 10 ill of the test compound are added, the compounds are diluted using stimulating buffer (140 mM NaCl, 3.6 mM KCl, 0.5 mM NaH2PO4, 0.5 mM MgSO4, 1.5 mM CaCl2, 10 mM Hepes, 5 mM NaHCO3; pH 7.4. 0.5 mM IBMX and 0.1% BSA, the final DMSO concentration is 1%). After 45 minutes incubation at room temperature (approx. 20° C.), the cAMP concentrations are determined using the AlphaScreen cAMP Assay Kit (Cat. No. #6760625R from PerkinElmer).

| pEC50 | SMILES |
| --- | --- |
| 7.74 | CCc1cnc(N2CCC3(CC2)CC2(Cc4cc(-c5ccc(S(C)(=O)=O)cc5)ncc4O2)C3)nc1 [Example 4, 1″-(5-Ethyl-pyrimidin-2-yl)-5-(4-methylsulfonyl-phenyl)-dispiro[2,3-dihydrofuro[2,3-c]pyridine-2,1′-cyclobutane-3′,4″-piperidine]] |
| 6.44 | CS(=O)(=O)c1ccc(-c2cc3c(cn2)OC2(C3)CC3(CCN(CC4(C(F)(F)F)CC4)CC3)C2)cc1 [Example 5, 5-(4-Methylsulfonyl-phenyl)-1″-[(1-trifluoromethyl-cyclopropyl)-methyl]-dispiro[2,3-dihydrofuro[2,3-c]pyridine-2,1′-cyclobutane-3′,4″-piperidine]] |
| 6.87 | CC(C)(F)CN1CCC2(CC1)CC1(Cc3cc(-c4ccc(S(C)(=O)=O)cc4)ncc3O1)C2 [Example 6, 1″-(2-Fluoro-2-methyl-propyl)-5-(4-methylsulfonyl-phenyl)-dispiro[2,3-dihydrofuro[2,3-c]pyridine-2,1′-cyclobutane-3′,4″-piperidine]] |
| 7.38 | Cc1cnc(N2CCC3(CC2)CC2(Cc4cc(-c5ccc(S(C)(=O)=O)cc5)ncc4O2)C3)nc1 [Example 7, 1″-(5-Methyl-pyrimidin-2-yl)-5-(4-methylsulfonyl-phenyl)-dispiro[2,3-dihydrofuro[2,3-c]pyridine-2,1′-cyclobutane-3′,4″-piperidine]] |
| 8.22 | CS(=O)(=O)N1CC=C(c2cc3c(cn2)OC2(C3)CC3(CCN(c4ncc(Cl)cn4)CC3)C2)CC1 [Example 9, 1″-(5-Chloro-pyrimidin-2-yl)-5-(1-methanesulfonyl-1,2,3,6-tetrahydro-pyridin-4-yl)-dispiro[2,3-dihydrofuro[2,3-c]pyridine-2,1′-cyclobutane-3′,4″-piperidine]] |
| 7.80 | CC(C)OC(=O)N1CCC2(CC1)CC1(Cc3cc(C4=CCN(S(C)(=O)=O)CC4)ncc3O1)C2 [Example 10, 1″-(Isopropyloxycarbonyl)-5-(1-methanesulfonyl-1,2,3,6-tetrahydro-pyridin-4-yl)-dispiro[2,3-dihydrofuro[2,3-c]pyridine-2,1′-cyclobutane-3′,4″-piperidine]] |
| 7.89 | CS(=O)(=O)N1CC=C(c2cc3c(cn2)OC2(C3)CC3(CCN(c4ccc(C(F)(F)F)cn4)CC3)C2)CC1 [Example 11, 5-(1-Methanesulfonyl-1,2,3,6-tetrahydro-pyridin-4-yl)-1″-(5-trifluoromethyl-pyridin-2-yl)-dispiro[2,3-dihydrofuro[2,3-c]pyridine-2,1′-cyclobutane-3′,4″-piperidine]] |
| 7.96 | CC1(OC(=O)N2CCC3(CC2)CC2(Cc4cc(C5=CCN(S(C)(=O)=O)CC5)ncc4O2)C3)CC1 [Example 12, 5-(1-Methanesulfonyl-1,2,3,6-tetrahydro-pyridin-4-yl)-1″-(1-methyl-cyclopropyloxycarbonyl)-dispiro[2,3-dihydrofuro[2,3-c]pyridine-2,1′-cyclobutane-3′,4″-piperidine]] |
| 8.00 | CC(C)Oc1cnc(N2CCC3(CC2)CC2(Cc4cc(C5=CCN(S(C)(=O)=O)CC5)ncc4O2)C3)nc1 [Example 15, 1″-(5-Isopropoxy-pyrimidin-2-yl)-5-(1-methanesulfonyl-1,2,3,6-tetrahydro-pyridin-4-yl)-dispiro[2,3-dihydrofuro[2,3-c]pyridine-2,1′-cyclobutane-3′,4″-piperidine]] |
| 8.40 | CCCc1cnc(N2CCC3(CC2)CC2(Cc4cc(C5=CCN(S(C)(=O)=O)CC5)ncc4O2)C3)nc1 [Example 16, 5-(1-Methanesulfonyl-1,2,3,6-tetrahydro-pyridin-4-yl)-1″-(5-n-propyl-pyrimidin-2-yl)-dispiro[2,3-dihydrofuro[2,3-c]pyridine-2,1′-cyclobutane-3′,4″-piperidine]] |
| 8.05 | CS(=O)(=O)N1CC=C(c2cc3c(cn2)OC2(C3)CC3(CCN(c4ncc(C5CC5)cn4)CC3)C2)CC1 [Example 17, 1″-(5-Cyclopropyl-pyrimidin-2-yl)-5-(1-methanesulfonyl-1,2,3,6-tetrahydro-pyridin-4-yl)-dispiro[2,3-dihydrofuro[2,3-c]pyridine-2,1′-cyclobutane-3′,4″-piperidine]] |
| 8.00 | CS(=O)(=O)N1CC=C(c2cc3c(cn2)OC2(C3)CC3(CCN(c4nnc(C(F)(F)F)s4)CC3)C2)CC1 [Example 20, 5-(1-Methanesulfonyl-1,2,3,6-tetrahydro-pyridin-4-yl)-1″-(5-trifluoromethyl-[1,3,4]thiadiazol-2-yl)-dispiro[2,3-dihydrofuro[2,3-c]pyridine-2,1′-cyclobutane-3′,4″-piperidine]] |

| SMILES | pEC50 |
| --- | --- |
| CC(C)(C)OC(=O)N1CCC2(CC1)CC1(Cc3cc(-c4ccc(S(C)(=O)=O)cc4)ncc3O1)C2 [Example 1, 5-(4-Methylsulfonyl-phenyl)-1″-tert-butoxycarbonyl-dispiro[2,3-dihydrofuro[2,3-c]pyridine-2,1′-cyclobutane-3′,4″-piperidine]] | 7.68 |
| CC(C)(C)OC(=O)N1CCC2(CC1)CC1(Cc3cc(C4=CCN(S(C)(=O)=O)CC4)ncc3O1)C2 [Example 2, 5-(1-Methanesulfonyl-1,2,3,6-tetrahydro-pyridin-4-yl)-1″-tert-butoxycarbonyl-dispiro[2,3-dihydrofuro[2,3-c]pyridine-2,1′-cyclobutane-3′,4″-piperidine]] | 7.30 |
| CC(C)(C)OC(=O)N1CCC2(CC1)CC1(Cc3cc(-c4ccc(S(C)(=O)=O)cc4F)ncc3O1)C2 [Example 3, 5-(2-Fluoro-4-methylsulfonyl-phenyl)-1″-tert-butoxycarbonyl-dispiro[2,3-dihydrofuro[2,3-c]pyridine-2,1′-cyclobutane-3′,4″-piperidine]] | 7.82 |
| CC1=C(c2cc3c(cn2)OC2(C3)CC3(CCN(C(=O)OC(C)(C)C)CC3)C2)CCN(S(C)(=O)=O)C1 [Example 8, 5-(1-Methanesulfonyl-5-methyl-1,2,3,6-tetrahydro-pyridin-4-yl)-1″-tert-butoxycarbonyl-dispiro[2,3-dihydrofuro[2,3-c]pyridine-2,1′-cyclobutane-3′,4″-piperidine]] | 7.72 |
| CC(C)(C)OC(=O)N1CCC2(CC1)CC1(Cc3cc(-c4ccc(S(C)(=O)=O)nc4)ncc3O1)C2 [Example 13, 5-(6-Methanesulfonyl-pyridin-3-yl)-1″-tert-butoxycarbonyl-dispiro[2,3-dihydrofuro[2,3-c]pyridine-2,1′-cyclobutane-3′,4″-piperidine]] | 7.38 |
| CC(C)(C)OC(=O)N1CCC2(CC1)CC1(Cc3cc(-c4ccc(C#N)cc4F)ncc3O1)C2 [Example 14, 5-(4-Cyano-2-fluoro-phenyl)-1″-tert-butoxycarbonyl-dispiro[2,3-dihydrofuro[2,3-c]pyridine-2,1′-cyclobutane-3′,4″-piperidine]] | 7.22 |
| CC(C)(C)OC(=O)N1CCC2(CC1)CC1(Cc3cc(-c4ccc(CS(C)(=O)=O)cc4)ncc3O1)C2 [Example 18, 5-(4-Methylsulfonylmethyl-phenyl)-1″-tert-butoxycarbonyl-dispiro[2,3-dihydrofuro[2,3-c]pyridine-2,1′-cyclobutane-3′,4″-piperidine]] | 7.62 |
| CC(C)(C)OC(=O)N1CCC2(CC1)CC1(Cc3cc(C4CCN(S(C)(=O)=O)CC4)ncc3O1)C2 [Example 19, 5-(1-Methanesulfonyl-piperidin-4-yl)-1″-tert-butoxycarbonyl-dispiro[2,3-dihydrofuro[2,3-c]pyridine-2,1′-cyclobutane-3′,4″-piperidine]] | 6.97 |
